Consider 44 molecules from patent US8193369B2, “Benzimidazole cannabinoid agonists” (Janssen Pharmaceutica NV, priority 2007, dated 2012).

For data set [1], the target named is T1, human CB2 (hCB2) receptor (Homo sapiens, UniProt P34972).
T1 construct: expressed in transfected cells; host or cells: CHO-K1
Briefly: Inhibition of forskolin-activated cAMP production upon activation of human CB2 receptor (HTRF). Format: cell-based. Conditions: CHO-K1 cells stably transfected with hCB2; 15 μM forskolin; pEC50=-log(EC50); relative to WIN55212-2. The method, then: D. Pharmacological Examples D.1 Inhibition of cAMP in Response to Activation of the Human CB2 Receptors
Functional activity of the test compounds was assessed by measuring their potency to inhibit forskolin-activated cAMP production upon activation of human CB2 (hCB2) receptor through homogenous time resolved fluorescence (HTRF) assays.
CHO-K1 cells stably transfected with hCB2 were grown up to 80-90% confluence in T175 Falcon flasks in DMEM/NUT MIX F-12 culture medium complemented with 2% Solution A (5.10^6 IU/l penicillin G, 5 g/l streptomycin sulphate, 5.5 g/l pyruvate, 14.6 g/l L-glutamine, 1M NaOH) and 10% foetal calf serum. Before the experiments, medium was removed, cells were washed with PBS/EDTA (140 mM NaCl, 1 mM Na2-EDTA, 8 mM Na2HPO4.2H2O, 8.5 mM KH2PO4, 2.7 mM KCl, 21 mM glucose), resuspended in stimulation buffer (HBSS 1×, IBMX 1 mM, Hepes 5 mM, MgCl2 10 mM, BSA 0.1%, pH 7.4). Cells were diluted to a concentration of 10^6 cells/ml for hCB2 experiments. Assays were performed using the cAMP Dynamic HTRF kit (CIS bio international, France) according to the recommendations of the manufacturer.
For CB2, each well of a 384 flat bottom black polystyrene assay plate (Costar) was filled with 10 μl stimulation buffer containing 15 μM forskolin and either test compound (in 3% DMSO), 3% DMSO or 10 μM Win55212-2 (in 3% DMSO). Then, 20 μl of the diluted hCB2-CHO-K1 cells was added (20,000 cells/well). After 30 minutes incubation in dark at room temperature, 10 μl cAMP-XL665 and 10 μl anti-cAMP cryptate (both at a final dilution of 1/100) was added to the cells.
After equilibration of the reaction mixtures for 1 to 24 hours in dark at room temperature, fluorescence was measured at 665 nm and 620 nm using a Discovery microplate fluorescence counter (Perkin Elmer), and the signal ratio of 665 nm/620 nm was calculated. The signal ratios of the test compounds were expressed relative to the signal ratios of the DMSO control (maximal signal ratio, no inhibition of cAMP) and WIN55212-2 for hCB2, respectively (minimal signal ratio, maximal inhibition of cAMP). From the dose response curves generated for each test compound, the dose at which 50% of the maximal inhibition of cAMP level is observed (EC50, expressed in the Table as pEC50=−log (EC50) values) and the level of inhibition reached with 10 μM of the test compound compared to WIN55212-2 (for hCB2) was calculated.
(Cyclic AMP is a second messenger, typically raised through Gs and lowered through Gi signalling.)

T1 sequence (P34972 whole entry): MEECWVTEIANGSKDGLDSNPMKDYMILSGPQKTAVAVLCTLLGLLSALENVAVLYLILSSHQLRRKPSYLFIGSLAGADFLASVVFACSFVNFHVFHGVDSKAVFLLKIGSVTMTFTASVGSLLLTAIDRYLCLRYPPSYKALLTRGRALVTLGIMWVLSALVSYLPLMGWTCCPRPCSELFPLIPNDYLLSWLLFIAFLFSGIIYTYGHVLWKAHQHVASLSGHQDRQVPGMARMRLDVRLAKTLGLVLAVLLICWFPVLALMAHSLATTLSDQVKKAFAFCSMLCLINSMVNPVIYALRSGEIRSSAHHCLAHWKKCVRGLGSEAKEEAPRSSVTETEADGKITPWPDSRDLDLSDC

Consider `CC(=O)N1CCC(Cn2c(C(C)(C)C)nc3cc(S(=O)(=O)c4ccncc4)ccc32)CC1` [compound 34], for which the melting point is 179 °C. In data set [1], a half-maximal effect (EC50) was put at 3.89 nM.
In turn, `CC(=O)N1CCC(Cn2c(C(C)(C)C)nc3cc(S(=O)(=O)c4ccc(F)cc4)ccc32)CC1` [compound 59] displayed a melting point of 186 °C. The molecule further showed an EC50 in data set [1] of 2.75 nM.
As to `CCC(=O)N1CCC(Cn2c(C(C)(C)C)nc3cc(S(=O)(=O)CCCC(F)(F)F)ccc32)CC1.Cl` [compound 6], the melting point was above 100 °C. Further, the “CB2 pEC50” value in data set [1] is reported as 7.72.
For `CCCC(CCC)S(=O)(=O)c1ccc2c(c1)nc(C(C)(C)C)n2CC1CCN(C(C)=O)CC1` [compound 67], the melting point came to 132 °C. The EC50 in data set [1] was 2.75 nM.
Taken in the same sequence, the figures for `CC(C)(C)c1nc2cc(S(=O)(=O)c3nccs3)ccc2n1CC1CCN(C=O)CC1` [compound 49] were 190 °C and 7.41 nM.
Taken in the same sequence, the figures for `CC(=O)N1CCC(Cn2c(C(C)(C)C)nc3cc(S(=O)(=O)Cc4ccc(F)cc4)ccc32)CC1` [compound 25] were above 100 °C and 12.3 nM.
Regarding `COCC(=O)N1CCC(Cn2c(C(C)(C)C)nc3cc(S(=O)(=O)CCCC(F)(F)F)ccc32)CC1` [compound 9], the melting point is above 100 °C. Also, the “CB2 pEC50” value in data set [1] stood at 5.80.
Taken in the same sequence, the figures for `COC(=O)N1CCC(Cn2c(C(C)(C)C)nc3cc(S(=O)(=O)CCCC(F)(F)F)ccc32)CC1.Cl` [compound 7] were above 100 °C and 7.77.
For `CC(=O)N1CCC(Cn2c(C(C)(C)C)nc3cc(S(=O)(=O)c4cccc(Cl)c4)ccc32)CC1` [compound 90], the melting point turned out to be 192 °C. This molecule also had an EC50 in data set [1] of 0.741 nM.
`CC(=O)N1CCC(Cn2c(C(C)(C)C)nc3cc(S(=O)(=O)c4ccccc4Cl)ccc32)CC1` [compound 71] yielded a melting point of 218 °C. The molecule further gave an EC50 in data set [1] of 7.41 nM.
Take `CC(=O)N1CCC(Cn2c(C(C)(C)C)nc3cc(S(=O)(=O)CC4CC4)ccc32)CC1` [compound 24]: the melting point amounted to 150 °C. Moreover, in data set [1], the EC50 was 9.33 nM.
On to `CCS(=O)(=O)c1ccc2c(c1)nc(C(C)(C)C)n2CC1CCS(=O)(=O)CC1` [compound 29], for which the melting point is 194 °C. This molecule also showed an EC50 in data set [1] of 27.5 nM.
Molecule `COc1cccc(S(=O)(=O)c2ccc3c(c2)nc(C(C)(C)C)n3CC2CCN(C(C)=O)CC2)c1` [compound 82] displayed a melting point of 164 °C. This molecule gave an EC50 in data set [1] of 2.19 nM.
Taken in the same sequence, the figures for `CC(=O)N1CCC(Cn2c(C(C)(C)C)nc3cc(S(=O)(=O)CC4CCC4)ccc32)CC1` [compound 43] were 155 °C and 8.71 nM.
The matching figures for `CC(=O)N1CCC(Cn2c(C(C)(C)C)nc3cc(S(=O)(=O)c4c(Cl)cccc4Cl)ccc32)CC1` [compound 60]: 224 °C and 3.47 nM.
Take `CC(C)(C)c1nc2cc(S(=O)(=O)CC3CC3)ccc2n1CC1CCN(C=O)CC1` [compound 36]: the melting point came to 186 °C. Further, the “CB2 pEC50” value in data set [1] is 8.66.
In turn, `CCS(=O)(=O)c1ccc2c(c1)nc(CC(C)(C)C)n2CC1CCN(C=O)CC1` [compound 48] came in with a melting point of 166 to 168 °C. The molecule also gave an EC50 in data set [1] of 69.2 nM.
The matching figures for `CC(=O)N1CCC(Cn2c(C(C)(C)C)nc3cc(S(=O)(=O)c4cccc(C#N)c4)ccc32)CC1` [compound 84]: 191 °C and 3.31 nM.
`CC(C)(C)c1nc2cc(S(=O)(=O)CCCC(F)(F)F)ccc2n1CC1CCN(C=O)CC1` [compound 5] had a melting point above 100 °C. In addition, the “CB2 pEC50” value in data set [1] is listed as 8.62.
With `COc1cccc(S(=O)(=O)c2ccc3c(c2)nc(C(C)(C)C)n3CC2CCN(C(C)=O)CC2)c1OC` [compound 108], in data set [1], the EC50 was around 13.8 nM.
On the same count and under the same terms, the value for `COc1ccc(S(=O)(=O)c2ccc3c(c2)nc(C(C)(C)C)n3CC2CCN(C(C)=O)CC2)c(OC)c1` [compound 106] was around 22.9 nM.
On to `CC(=O)N1CCC(Cn2c(C(C)(C)C)nc3cc(S(=O)(=O)C4CCCC4)ccc32)CC1` [compound 35], for which, in data set [1], the “CB2 pEC50” value is reported as 8.49.
`CC(C)(C)c1nc2cc(S(=O)(=O)CCCC(F)(F)F)ccc2n1CC1CCN(C(=O)C(F)(F)F)CC1.Cl` [compound 8] showed a melting point above 100 °C. In addition, the “CB2 pEC50” value in data set [1] was determined as 7.64.
Regarding `CC(=O)N1CCC(Cn2c(C(C)(C)C)nc3cc(S(=O)(=O)c4cccs4)ccc32)CC1` [compound 68], the melting point turned out to be 187 °C. In data set [1], this molecule had an EC50 of 2.95 nM.
The molecule `COCCSc1ccc2c(c1)nc(C(C)(C)C)n2CC1CCN(C=O)CC1` [compound 22] had an EC50 in data set [1] of 7.08 nM.
Still for that read-out and setting: then `CC(=O)N1CCC(Cn2c(C(C)(C)C)nc3cc(S(=O)(=O)c4cccc(C(F)(F)F)c4)ccc32)CC1` [compound 92], with 4.07 nM.
Take `CCS(=O)(=O)c1ccc2c(c1)nc(C(C)(C)C)n2CC1CCN(C=O)CC1` [compound 28]: the melting point was 188 to 190 °C. For the same molecule, the EC50 in data set [1] was 23.4 nM.
Molecule `CC(=O)N1CCC(Cn2c(C(C)(C)C)nc3cc(S(=O)(=O)CCc4ccc(F)cc4)ccc32)CC1` [compound 56] had an EC50 in data set [1] of 3.39 nM.
On to `CC(=O)N1CCC(Cn2c(C(C)(C)C)nc3cc(S(=O)(=O)c4ccccc4C(F)(F)F)ccc32)CC1` [compound 113], for which the EC50 in data set [1] was around 2.51 nM.
Still for that read-out and setting: the value for `CC(=O)N1CCC(Cn2c(C(C)(C)C)nc3cc(Sc4ccc(C#N)cc4)ccc32)CC1` [compound 18] was 6.31 nM.
Molecule `CC(C)(C)c1nc2cc(S(=O)(=O)CC3CC3)ccc2n1CC1CCS(=O)(=O)CC1` [compound 31] came in with a melting point of 234 °C. The molecule also had an EC50 in data set [1] of 8.51 nM.
Taken in the same sequence, the figures for `COCCS(=O)(=O)c1ccc2c(c1)nc(C(C)(C)C)n2CC1CCN(C=O)CC1` [compound 27] were above 100 °C and 61.7 nM.
In data set [1], `CC(=O)N1CCC(Cn2c(C(C)(C)C)nc3cc(S(=O)(=O)C(C)(C)C#N)ccc32)CC1` [compound 42] gave an EC50 of 5.5 nM.
Take `CCS(=O)(=O)c1ccc2c(c1)nc(C(C)C)n2CC1CCN(C(C)=O)CC1` [compound 47]: the EC50 in data set [1] is 955 nM.
For `CCS(=O)(=O)c1ccc2c(c1)nc(CC(C)(C)C)n2CC1CCN(C(C)=O)CC1` [compound 46], the melting point was in the range of 152 to 155 °C. Moreover, it took 53.7 nM to reach a half-maximal effect in data set [1] (EC50).
Taken in the same sequence, the figures for `CC(=O)N1CCC(Cn2c(C(C)(C)C)nc3cc(S(=O)(=O)c4nccs4)ccc32)CC1` [compound 40] were 191 °C and 5.89 nM.
Take `CC(=O)N1CCC(Cn2c(C(C)(C)C)nc3cc(Sc4cccc(N(C)C)c4)ccc32)CC1` [compound 97]: the EC50 in data set [1] was 4.79 nM.
With `CC(C)(C)c1nc2cc(S(=O)(=O)CCCO)ccc2n1CC1CCN(C=O)CC1` [compound 26], the melting point was above 100 °C. In data set [1], this molecule gave an EC50 of 8.91 nM.
For the molecule `CC(=O)N1CCC(Cn2c(C(C)(C)C)nc3cc(S(=O)(=O)c4cccc(C#N)c4C)ccc32)CC1` [compound 112], in data set [1], the EC50 is around 16.6 nM.
In the case of `CC(=O)N1CCC(Cn2c(C(C)(C)C)nc3cc(S(=O)(=O)c4ccc(F)c(C#N)c4)ccc32)CC1` [compound 105], in data set [1], the EC50 is around 1.29 nM.
Molecule `CC(=O)N1CCC(Cn2c(C(C)(C)C)nc3cc(S(=O)(=O)c4ccc(C(F)(F)F)cc4)ccc32)CC1` [compound 88] had a melting point of 189 °C. Moreover, in data set [1], the EC50 is 0.537 nM.
For the molecule `CC(=O)N1CCC(Cn2c(C(C)(C)C)nc3cc(S(=O)(=O)Cc4ccc([N+](=O)[O-])cc4)ccc32)CC1` [compound 69], the midpoint of the response in data set [1], the EC50, lay at 5.89 nM.
`CC(=O)N1CCC(Cn2c(C(C)(C)C)nc3cc(S(=O)(=O)c4ccccn4)ccc32)CC1` [compound 53] gave a melting point of 205 °C. The molecule also showed an EC50 in data set [1] of 2.95 nM.
As to `CC(C)S(=O)(=O)c1ccc2c(c1)nc(C(C)(C)C)n2CC1CCS(=O)(=O)CC1` [compound 30], the EC50 in data set [1] was 50.1 nM.

Broadly, the EC50 is the midpoint of the concentration-response curve. By melting point is commonly meant the temperature of the solid-liquid transition.
